Experimental data: ChEMBL document CHEMBL4229410, “Facile construction of fused benzimidazole-isoquinolinones that induce cell-cycle arrest and apoptosis in colorectal cancer cells” (Bioorg Med Chem, 2018)

Assays:
HT-29 [1] = assay: Cell cycle arrest in human HT-29 cells assessed as accumulation at G2-phase at 75 uM after 48 hrs by propidium iodide staining based flow cytometry (reference value: 15.45%); format: functional
SW-620 [2] = assay: Induction of apoptosis in human SW620 cells assessed as increase in apoptotic bodies after 48 hrs by Hoechst 33342 staining based fluorescence microscopic analysis; format: functional, cell-based
SW-620 [3] = assay: Induction of apoptosis in human SW620 cells assessed as early apoptotic cells at 50 uM after 48 hrs by Annexin-V-FITC/propidium iodide staining based flow cytometry (reference value: 0.4%); format: functional
HT-29 [4] = assay: Induction of apoptosis in human HT-29 cells assessed as live cells at 50 uM after 48 hrs by Annexin-V-FITC/propidium iodide staining based flow cytometry (reference value: 93.2%); format: functional
[5] = Growth inhibition of human FHC cells after 48 hrs by MTT assay; format: cell-based
Aurora kinase B = Aurora kinase B (Homo sapiens, UniProt Q96GD4); assay: Inhibition of human AURKB (D25 to A303 residues) expressed in mammalian expression system assessed as residual activity at 5 uM by KINOMEscan assay relative to control
[6] = system: Serine/threonine-protein kinase B-raf (Homo sapiens), P15056 [V600E]; assay: Inhibition of human BRAF (S429 to E741 residues) V600E mutant expressed in mammalian expression system assessed as residual activity at 5 uM by KINOMEscan assay relative to control
[7] = molecular target: Cyclin-dependent kinase 3 (Homo sapiens, UniProt Q00526); assay: Inhibition of full length human CDK3 (M1 to H305 residues) expressed in bacterial expression system assessed as residual activity at 5 uM by KINOMEscan assay relative to control
[8] = molecular target: Cyclin-dependent kinase 7 (Homo sapiens, UniProt P50613); assay: Inhibition of full length human CDK7 (M1 to L344 residues) expressed in mammalian expression system assessed as residual activity at 5 uM by KINOMEscan assay relative to control
[9] = molecular target: Macrophage colony-stimulating factor 1 receptor (Homo sapiens, UniProt P07333); assay: Inhibition of human CSF1R (I564 to S939 residues) expressed in bacterial expression system assessed as residual activity at 5 uM by KINOMEscan assay relative to control
[10] = molecular target: Epidermal growth factor receptor (Homo sapiens, UniProt P00533); assay: Inhibition of partial length human EGFR (R669 to V1011 residues) expressed in bacterial expression system assessed as residual activity at 5 uM by KINOMEscan assay relative to control
[11] = molecular target: Tyrosine-protein kinase JAK3 (Homo sapiens) (UniProt P52333); assay: Inhibition of human JAK3 JH1 catalytic domain (I781 to S1124 residues) expressed in mammalian expression system assessed as residual activity at 5 uM by KINOMEscan assay relative to control
[12] = molecular target: Serine/threonine-protein kinase STK11 (Homo sapiens) (UniProt Q15831); assay: Inhibition of full length human LKB1 (M1 to Q433 residues) expressed in bacterial expression system assessed as residual activity at 5 uM by KINOMEscan assay relative to control
[13] = molecular target: Mitogen-activated protein kinase kinase kinase 4 (Homo sapiens, UniProt Q9Y6R4); assay: Inhibition of human MAP3K4 (G1319 to E1608 residues) expressed in bacterial expression system assessed as residual activity at 5 uM by KINOMEscan assay relative to control
[14] = molecular target: Serine/threonine-protein kinase PLK4 (Homo sapiens) (UniProt O00444); assay: Inhibition of partial length human PLK4 (M1 to S273 residues) expressed in mammalian expression system assessed as residual activity at 5 uM by KINOMEscan assay relative to control
[15] = molecular target: NUAK family SNF1-like kinase 2 (Homo sapiens) (UniProt Q9H093); assay: Inhibition of human SNARK (P22 to A333 residues) expressed in mammalian expression system assessed as residual activity at 5 uM by KINOMEscan assay relative to control
[16] = molecular target: Atypical kinase COQ8A, mitochondrial (Homo sapiens, UniProt Q8NI60); assay: Binding affinity to full length human ADCK3 (M280 to Q647 residues) expressed in bacterial expression system by KINOMEscan assay
[17] = molecular target: Serine/threonine-protein kinase B-raf (Homo sapiens, UniProt P15056, V600E); assay: Binding affinity to human BRAF (S429 to E741 residues) V600E mutant expressed in mammalian expression system by KINOMEscan assay
[18] = molecular target: Cyclin-dependent kinase 9 (Homo sapiens, UniProt P50750); assay: Binding affinity to full length human CDK9 (M1 to F372 residues) expressed in bacterial expression system by KINOMEscan assay
[19] = molecular target: Receptor tyrosine-protein kinase erbB-2 (Homo sapiens, UniProt P04626); assay: Binding affinity to human ERBB2 (K646 to V1225 residues) expressed in mammalian expression system by KINOMEscan assay
[20] = molecular target: Receptor tyrosine-protein kinase erbB-4 (Homo sapiens, UniProt Q15303); assay: Binding affinity to human ERBB4 (L690 to K994 residues) expressed in bacterial expression system by KINOMEscan assay
[21] = molecular target: Insulin-like growth factor 1 receptor (Homo sapiens, UniProt P08069); assay: Binding affinity to human IGF1R (L972 to D1294 residues) expressed in bacterial expression system by KINOMEscan assay
[22] = molecular target: Tyrosine-protein kinase JAK2 (Homo sapiens, UniProt O60674); assay: Binding affinity to human JAK2 JH1 catalytic domain (A829 to G1132 residues) expressed in mammalian expression system by KINOMEscan assay
[23] = molecular target: 3-phosphoinositide-dependent protein kinase 1 (Homo sapiens, UniProt O15530); assay: Binding affinity to full length human PDPK1 (M1 to Q556 residues) expressed in bacterial expression system by KINOMEscan assay
[24] = molecular target: Phosphatidylinositol 4-phosphate 3-kinase C2 domain-containing subunit beta (Homo sapiens, UniProt O00750); assay: Binding affinity to human PIK3C2B (M1 to L1634 residues) expressed in mammalian expression system by KINOMEscan assay
[25] = molecular target: Phosphatidylinositol 4,5-bisphosphate 3-kinase catalytic subunit alpha isoform (Homo sapiens, UniProt P42336); assay: Binding affinity to human PIK3CA (R108 to N1068 residues) expressed in mammalian expression system by KINOMEscan assay
SRSF protein kinase 3 = SRSF protein kinase 3 (Homo sapiens, UniProt Q9UPE1); assay: Binding affinity to human SRPK3 (P41 to P567 residues) expressed in bacterial expression system by KINOMEscan assay
TGF-beta receptor type-1 = TGF-beta receptor type-1 (Homo sapiens, UniProt P36897); assay: Binding affinity to human TGFBR1 (D179 to M503 residues) expressed in bacterial expression system by KINOMEscan assay
[26] = molecular target: Tyrosine-protein kinase ZAP-70 (Homo sapiens, UniProt P43403); assay: Binding affinity to human ZAP70 (D20 to G299 residues) expressed in mammalian expression system by KINOMEscan assay

Chain of Insulin-like growth factor 1 receptor (P08069 31-736 limits assumed): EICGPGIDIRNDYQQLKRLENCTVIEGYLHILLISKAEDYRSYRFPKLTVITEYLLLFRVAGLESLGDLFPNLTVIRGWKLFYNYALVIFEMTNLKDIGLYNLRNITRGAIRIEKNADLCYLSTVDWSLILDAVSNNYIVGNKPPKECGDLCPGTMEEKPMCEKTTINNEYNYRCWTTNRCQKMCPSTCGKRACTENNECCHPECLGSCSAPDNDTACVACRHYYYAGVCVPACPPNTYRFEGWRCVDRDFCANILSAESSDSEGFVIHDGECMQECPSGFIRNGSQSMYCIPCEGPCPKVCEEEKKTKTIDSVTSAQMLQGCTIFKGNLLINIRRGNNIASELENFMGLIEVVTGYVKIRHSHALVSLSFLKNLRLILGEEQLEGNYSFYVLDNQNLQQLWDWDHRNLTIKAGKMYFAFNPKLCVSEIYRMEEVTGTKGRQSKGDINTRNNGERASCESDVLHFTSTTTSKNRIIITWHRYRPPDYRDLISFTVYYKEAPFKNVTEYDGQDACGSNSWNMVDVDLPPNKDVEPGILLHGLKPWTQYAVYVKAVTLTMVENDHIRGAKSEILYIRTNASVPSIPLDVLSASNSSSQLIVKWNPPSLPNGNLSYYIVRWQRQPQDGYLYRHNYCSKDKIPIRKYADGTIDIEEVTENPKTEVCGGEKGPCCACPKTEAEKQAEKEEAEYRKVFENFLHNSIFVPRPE
Chain of Insulin-like growth factor 1 receptor (P08069 741-1367 limits assumed): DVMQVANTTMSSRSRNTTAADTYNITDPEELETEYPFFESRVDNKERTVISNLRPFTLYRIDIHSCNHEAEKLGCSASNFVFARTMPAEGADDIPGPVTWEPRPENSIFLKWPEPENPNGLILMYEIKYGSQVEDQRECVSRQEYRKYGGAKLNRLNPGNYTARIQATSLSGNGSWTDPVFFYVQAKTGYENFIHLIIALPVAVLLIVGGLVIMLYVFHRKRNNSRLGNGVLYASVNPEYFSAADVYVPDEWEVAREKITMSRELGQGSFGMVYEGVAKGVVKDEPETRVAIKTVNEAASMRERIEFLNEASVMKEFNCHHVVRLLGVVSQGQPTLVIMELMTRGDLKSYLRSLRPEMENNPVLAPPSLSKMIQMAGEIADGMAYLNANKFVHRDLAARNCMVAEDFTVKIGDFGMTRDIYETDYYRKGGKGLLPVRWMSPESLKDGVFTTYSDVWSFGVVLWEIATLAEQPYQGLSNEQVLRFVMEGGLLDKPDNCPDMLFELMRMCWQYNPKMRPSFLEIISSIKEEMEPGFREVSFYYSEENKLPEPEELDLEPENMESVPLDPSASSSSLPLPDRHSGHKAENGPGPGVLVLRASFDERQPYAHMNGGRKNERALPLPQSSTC
Chain of Mitogen-activated protein kinase kinase kinase 4 (Q9Y6R4 whole entry, the tested form may be a part): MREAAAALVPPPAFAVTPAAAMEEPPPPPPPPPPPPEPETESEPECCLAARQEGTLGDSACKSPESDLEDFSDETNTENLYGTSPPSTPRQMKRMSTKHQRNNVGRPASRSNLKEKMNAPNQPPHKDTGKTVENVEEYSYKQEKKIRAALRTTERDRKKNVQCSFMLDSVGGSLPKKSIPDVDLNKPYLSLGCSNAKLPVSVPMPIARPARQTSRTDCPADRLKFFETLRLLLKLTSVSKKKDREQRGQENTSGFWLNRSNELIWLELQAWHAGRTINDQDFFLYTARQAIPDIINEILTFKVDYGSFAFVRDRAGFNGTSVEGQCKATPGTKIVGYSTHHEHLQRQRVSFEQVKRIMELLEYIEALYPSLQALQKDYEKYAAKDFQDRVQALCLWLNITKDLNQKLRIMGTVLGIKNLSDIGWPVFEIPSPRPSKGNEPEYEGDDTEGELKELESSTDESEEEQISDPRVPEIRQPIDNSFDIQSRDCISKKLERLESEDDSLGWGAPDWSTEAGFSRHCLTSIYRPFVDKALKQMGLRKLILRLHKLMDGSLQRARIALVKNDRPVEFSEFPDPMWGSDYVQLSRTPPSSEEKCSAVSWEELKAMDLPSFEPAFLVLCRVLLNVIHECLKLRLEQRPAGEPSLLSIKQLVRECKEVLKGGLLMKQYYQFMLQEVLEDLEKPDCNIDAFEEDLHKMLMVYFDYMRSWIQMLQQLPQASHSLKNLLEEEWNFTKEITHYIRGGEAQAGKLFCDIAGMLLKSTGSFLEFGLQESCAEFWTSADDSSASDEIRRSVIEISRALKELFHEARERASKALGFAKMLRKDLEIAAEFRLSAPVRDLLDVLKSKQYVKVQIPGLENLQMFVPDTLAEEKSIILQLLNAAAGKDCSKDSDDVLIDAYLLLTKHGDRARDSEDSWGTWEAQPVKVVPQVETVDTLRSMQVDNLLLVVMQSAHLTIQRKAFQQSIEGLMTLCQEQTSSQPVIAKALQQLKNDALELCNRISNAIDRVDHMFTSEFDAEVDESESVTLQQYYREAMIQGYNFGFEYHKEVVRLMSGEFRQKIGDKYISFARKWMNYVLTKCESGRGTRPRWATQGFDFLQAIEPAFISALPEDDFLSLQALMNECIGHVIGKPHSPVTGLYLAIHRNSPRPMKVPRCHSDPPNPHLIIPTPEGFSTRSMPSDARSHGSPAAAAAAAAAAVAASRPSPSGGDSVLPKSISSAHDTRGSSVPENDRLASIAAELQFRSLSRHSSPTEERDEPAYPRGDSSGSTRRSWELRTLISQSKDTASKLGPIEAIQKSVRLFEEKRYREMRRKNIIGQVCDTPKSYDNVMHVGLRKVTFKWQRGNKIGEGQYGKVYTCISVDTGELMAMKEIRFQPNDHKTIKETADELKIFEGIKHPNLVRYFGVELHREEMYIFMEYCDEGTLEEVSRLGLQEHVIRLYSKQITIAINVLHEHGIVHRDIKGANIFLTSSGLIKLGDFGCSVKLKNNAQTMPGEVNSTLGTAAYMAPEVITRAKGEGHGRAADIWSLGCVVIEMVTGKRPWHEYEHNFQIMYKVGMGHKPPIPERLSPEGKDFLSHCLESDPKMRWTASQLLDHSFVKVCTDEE
Chain of Receptor tyrosine-protein kinase erbB-2 (P04626 whole entry, the tested form may be a part): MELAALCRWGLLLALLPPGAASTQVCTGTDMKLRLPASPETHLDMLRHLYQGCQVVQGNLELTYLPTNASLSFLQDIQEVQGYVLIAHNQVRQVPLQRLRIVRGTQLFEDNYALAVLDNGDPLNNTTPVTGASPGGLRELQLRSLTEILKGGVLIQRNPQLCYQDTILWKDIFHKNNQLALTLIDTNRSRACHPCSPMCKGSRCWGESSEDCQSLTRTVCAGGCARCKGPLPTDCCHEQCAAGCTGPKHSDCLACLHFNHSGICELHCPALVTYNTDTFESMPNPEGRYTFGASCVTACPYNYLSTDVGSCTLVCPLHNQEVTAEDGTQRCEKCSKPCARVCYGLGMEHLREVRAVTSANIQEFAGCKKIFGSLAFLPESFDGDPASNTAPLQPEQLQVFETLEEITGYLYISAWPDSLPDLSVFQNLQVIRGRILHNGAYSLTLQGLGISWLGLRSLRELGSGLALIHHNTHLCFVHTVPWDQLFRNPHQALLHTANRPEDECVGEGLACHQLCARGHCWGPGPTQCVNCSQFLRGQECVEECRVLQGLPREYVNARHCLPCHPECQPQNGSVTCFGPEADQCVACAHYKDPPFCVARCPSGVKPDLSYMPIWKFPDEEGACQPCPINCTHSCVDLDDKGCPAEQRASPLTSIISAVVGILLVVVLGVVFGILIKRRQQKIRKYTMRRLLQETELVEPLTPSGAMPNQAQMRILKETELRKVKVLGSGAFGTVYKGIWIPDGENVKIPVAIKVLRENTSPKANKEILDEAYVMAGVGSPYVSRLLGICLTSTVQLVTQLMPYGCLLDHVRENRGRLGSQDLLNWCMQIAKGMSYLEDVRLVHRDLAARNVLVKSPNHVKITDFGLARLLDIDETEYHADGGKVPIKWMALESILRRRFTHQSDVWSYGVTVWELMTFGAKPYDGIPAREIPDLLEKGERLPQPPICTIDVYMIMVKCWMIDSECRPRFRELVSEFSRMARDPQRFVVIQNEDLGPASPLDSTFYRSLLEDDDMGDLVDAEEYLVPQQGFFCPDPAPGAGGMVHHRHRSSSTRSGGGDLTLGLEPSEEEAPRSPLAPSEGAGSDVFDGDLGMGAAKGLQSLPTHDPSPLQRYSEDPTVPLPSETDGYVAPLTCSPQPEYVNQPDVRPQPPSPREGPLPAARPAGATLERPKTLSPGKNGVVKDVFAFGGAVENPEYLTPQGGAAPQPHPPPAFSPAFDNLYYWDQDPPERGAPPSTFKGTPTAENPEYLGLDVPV
Chain of Cyclin-dependent kinase 7 (P50613 whole entry, the tested form may be a part): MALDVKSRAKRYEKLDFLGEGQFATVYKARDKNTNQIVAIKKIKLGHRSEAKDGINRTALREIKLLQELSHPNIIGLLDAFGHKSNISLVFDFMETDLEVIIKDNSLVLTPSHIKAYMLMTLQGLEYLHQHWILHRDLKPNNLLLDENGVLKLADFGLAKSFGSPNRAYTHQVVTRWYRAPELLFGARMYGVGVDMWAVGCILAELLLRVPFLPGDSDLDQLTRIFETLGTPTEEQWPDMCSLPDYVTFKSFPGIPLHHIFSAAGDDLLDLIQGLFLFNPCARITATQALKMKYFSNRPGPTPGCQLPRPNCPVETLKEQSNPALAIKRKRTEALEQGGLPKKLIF
Chain of TGF-beta receptor type-1 (P36897 whole entry, the tested form may be a part): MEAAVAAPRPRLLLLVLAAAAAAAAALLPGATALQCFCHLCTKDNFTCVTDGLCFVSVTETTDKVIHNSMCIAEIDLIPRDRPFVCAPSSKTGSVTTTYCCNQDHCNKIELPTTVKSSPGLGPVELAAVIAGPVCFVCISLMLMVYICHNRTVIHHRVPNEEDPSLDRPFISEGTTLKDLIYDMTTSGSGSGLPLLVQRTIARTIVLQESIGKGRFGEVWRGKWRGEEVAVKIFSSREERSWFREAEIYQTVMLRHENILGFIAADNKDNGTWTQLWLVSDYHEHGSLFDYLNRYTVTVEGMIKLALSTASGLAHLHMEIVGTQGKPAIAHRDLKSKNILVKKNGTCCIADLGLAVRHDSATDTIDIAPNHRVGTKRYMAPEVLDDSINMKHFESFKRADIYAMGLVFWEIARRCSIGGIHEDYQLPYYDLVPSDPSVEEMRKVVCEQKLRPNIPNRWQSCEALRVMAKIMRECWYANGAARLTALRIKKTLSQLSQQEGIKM

CC(C)CN(C(=O)c1cccnc1)c1c2ccccc2c(=O)n2c1[nH]c1ccccc12
Activity (HT-29 [1]): 21.78% | Activity (SW-620 [2]): Dose-dependent effect | Activity (SW-620 [3]): 0.6% | Activity (HT-29 [4]): 80.3% | GI50 at 48 h [5]: > 200 µM | Activity (Aurora kinase B): 92% | Activity [6]: 100% | Activity [7]: 95% | Activity [8]: 100% | Activity [9]: 100% | Activity [10]: 100% | Activity [11]: 73% | Activity [12]: 63% | Activity [13]: 91% | Activity [14]: 100% | Activity [15]: 100% | Kd [16]: ≥ 5 µM | Kd [17]: ≥ 5 µM | Kd [18]: ≥ 5 µM | Kd [19]: ≥ 5 µM | Kd [20]: ≥ 5 µM | Kd [21]: ≥ 5 µM | Kd [22]: ≥ 5 µM | Kd [23]: ≥ 5 µM | Kd [24]: ≥ 5 µM | Kd [25]: ≥ 5 µM | Kd (SRSF protein kinase 3): ≥ 5 µM | Kd (TGF-beta receptor type-1): ≥ 5 µM | Kd [26]: ≥ 5 µM
